In experiment [1] the target is human cathepsin K (UniProt P43236). Nature of the experiment: Cathepsin K Assay (hrbCat K). It is filed as biochemical. The settings on record: Z-Leu-Arg-AMC substrate, pH 5.5, 15 min preincubation; read-out: hrbCat K (IP (nM)). The procedure, abridged:
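Human cathepsin K (0.4 nM) was preincubated 15 min at room temperature with compound in 50 mM MES pH 5.5, 2.5 mM EDTA, 2.5 mM DTT and 10% DMSO. Inhibition was fitted to a dose-response model.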

In experiment [2] the target is T1, human cathepsin F (Homo sapiens, UniProt Q9UBX1).
T1 sequence (Q9UBX1 271-484): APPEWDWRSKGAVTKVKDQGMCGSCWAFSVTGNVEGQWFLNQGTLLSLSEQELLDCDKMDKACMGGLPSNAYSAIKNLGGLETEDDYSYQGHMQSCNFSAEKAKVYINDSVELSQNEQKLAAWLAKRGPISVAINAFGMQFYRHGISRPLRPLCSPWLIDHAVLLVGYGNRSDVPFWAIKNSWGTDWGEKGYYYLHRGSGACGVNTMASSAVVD
Put plainly: Cathepsin F assay (hCat F). Type of experiment: biochemical. The conditions noted are these: Z-Phe-Arg-AMC substrate, pH 5.5, 15 min preincubation; read-out: hCat F (IP (nM)). In short, it runs like this: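 AMC release from Z-Phe-Arg-AMC, added at 8 μM, was monitored fluorometrically (360/460 nm) for 20 min after 10 nM enzyme and compound had been preincubated 15 min at room temperature. Buffer: MES 50 mM pH 5.5, EDTA and DTT 2.5 mM each, 10% DMSO. Compound DMSO dilutions spanned 500–0.025 μM (3-fold). Dose-response fitting gave % inhibition.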

Each structure is given as a SMILES string.

From patent US9573913B2, “Cathepsin cysteine protease inhibitors” (Merck Sharp & Dohme Corp., priority 2013, dated 2017) come the findings set out here.

Take `N#CC1(NC(=O)[C@@H]2CCCC[C@H]2c2nc(-c3ccc(F)cc3)sc2-c2ccc(C(=O)N3CCOCC3)cc2)CC1` [Example 32, (1R,2R)-N-(1-cyanocyclopropyl)-2-(2-(4-fluorophenyl)-5-(4-(morpholine-4-carbonyl)phenyl)thi-azol-4-yl)cyclohexane-carboxamide]: the IC50 came out at 65.1 nM in experiment [1] and 422 nM in experiment [2].
As to `CS(=O)(=O)N1CCN(C(=O)c2ccc(-c3sc(-c4ccc(F)cc4)nc3[C@@H]3CCCC[C@H]3C(=O)NC3(C#N)CC3)cc2)CC1` [Example 33, (1R,2R)-N-(1-cyanocyclopropyl)-2-(2-(4-fluorophenyl)-5-(4-(4-(methylsulfonyl)piperazine-1-carbonyl)phenyl)thi-azol-4-yl)cyclohexane-carboxamide], the figures for the IC50 in experiment [1] and in experiment [2] were 47 nM and 410 nM, respectively.
`N#CC1(NC(=O)[C@@H]2CCCC[C@H]2c2nc(-c3ccc(F)cc3)sc2-c2ccc(C(=O)N3CCC(O)CC3)cc2)CC1` [Example 34, (1R,2R)-N-(1-cyanocyclopropyl)-2-(2-(4-fluorophenyl)-5-(4-(4-hydroxypiperidine-1-carbonyl)phenyl)thi-azol-4-yl)cyclohexane-carboxamide]: the IC50 in experiment [1] amounted to 101 nM; in experiment [2] it was 868 nM.
Take `N#CC1(NC(=O)[C@@H]2CCCC[C@H]2c2nc(-c3ccc(F)cc3)sc2-c2ccc(C(=O)N3CCNC(=O)C3)cc2)CC1` [Example 35, (1R,2R)-N-(1-cyanocyclopropyl)-2-(2-(4-fluorophenyl)-5-(4-(3-oxopiperazine-1-carbonyl)phenyl)thi-azol-4-yl)cyclohexane-carboxamide]: the IC50 in experiment [1] is 64.5 nM; in experiment [2], 667 nM.
For `N#CC1(NC(=O)[C@@H]2CCCC[C@H]2c2nc(-c3cccnc3)sc2-c2ccc(N3CCS(=O)(=O)CC3)cc2)CC1` [Example 37, (1R,2R)-N-(1-cyanocyclopropyl)-2-(5-(4-(1,1-dioxidothiomorpho-lino)phenyl)-2-(pyridin-3-yl)thiazol-4-yl)cyclohexane-carboxamide], in that order: 0.5 nM and 2620 nM.
Consider `N#CC1(NC(=O)[C@@H]2CCCC[C@H]2c2nc(-c3ccc(C(F)(F)F)nc3)sc2-c2ccc(N3CCS(=O)(=O)CC3)cc2)CC1` [Example 38, (1R,2R)-N-(1-cyanocyclopropyl)-2-(5-(4-(1,1-dioxidothiomorpho-lino)phenyl)-2-(6-(trifluoromethyl)pyridin-3-yl)thiazol-4-yl)cyclohexane-carboxamide], for which the IC50 in experiment [1] is 1.8 nM; in experiment [2] it was 2060 nM.
Take `N#CC1(NC(=O)[C@@H]2CCCC[C@H]2c2nc(-c3ccon3)sc2-c2ccc(N3CCS(=O)(=O)CC3)cc2)CC1` [Example 39, (1R,2R)-N-(1-cyanocyclopropyl)-2-(5-(4-(1,1-dioxidothiomorpho-lino)phenyl)-2-(isoxazol-3-yl)thiazol-4-yl)cyclohexane-carboxamide]: the IC50 was found to be 1 nM in experiment [1] and 1360 nM in experiment [2].
`N#CC1(NC(=O)[C@@H]2CCCC[C@H]2c2nc(N3CCOCC3)sc2-c2ccc(N3CCS(=O)(=O)CC3)cc2)CC1` [Example 40, (1R,2R)-N-(1-cyanocyclopropyl)-2-(5-(4-(1,1-dioxidothiomorpho-lino)phenyl)-2-morpholinothiazol-4-yl)cyclohexane-carboxamide]: the IC50 in experiment [1] was 1.8 nM; in experiment [2], at least 10000 nM.
For the compound `N#CC1(NC(=O)[C@@H]2CCCC[C@H]2c2nc(-c3ccc(Cl)cn3)sc2-c2ccc(N3CCS(=O)(=O)CC3)cc2)CC1` [Example 41, (1R,2R)-2-(2-(5-chloropyridin-2-yl)-5-(4-(1,1-dioxidothiomorpho-lino)phenyl)thiazol-4-yl)-N-(1-cyanocyclopropyl) cyclohexanecarbox-amide], the IC50 is 1.2 nM in experiment [1] and 945 nM in experiment [2].
As to `CC(C)(O)c1ccc(-c2nc([C@@H]3CCCC[C@H]3C(=O)NC3(C#N)CC3)c(-c3ccc(N4CCS(=O)(=O)CC4)cc3)s2)cc1` [Example 43, (1R,2R)-N-(1-cyanocyclopropyl)-2-(5-(4-(1,1-dioxidothiomorpho-lino)phenyl)-2-(4-(2-hydroxypropan-2-yl)phenyl)thiazol-4-yl)cyclohexane-carboxamide], the IC50 in experiment [1] was 1.2 nM; in experiment [2] it was 1110 nM.
`N#CC1(NC(=O)[C@@H]2CCCC[C@H]2c2nc(-c3cncc(F)c3)sc2-c2ccc(N3CCS(=O)(=O)CC3)cc2)CC1` [Example 44, (1R,2R)-N-(1-cyanocyclopropyl)-2-(5-(4-(1,1-dioxidothiomorpho-lino)phenyl)-2-(5-fluoropyridin-3-yl)thiazol-4-yl)cyclohexane-carboxamide]: the IC50 in experiment [1] turned out to be 0.7 nM; in experiment [2], 790 nM.
Consider `N#CC1(NC(=O)[C@@H]2C[C@H](F)CC[C@H]2c2nc(-c3ccc(F)cc3)sc2-c2ccc(N3CCS(=O)(=O)CC3)cc2)CC1` [Example 45, (1R,2R,5R)-N-(1-cyanocyclopropyl)-2-(5-(4-(1,1-dioxidothiomorpho-lino)phenyl)-2-(4-fluorophenyl)thiazol-4-yl)-5-fluorocyclohexane-carboxamide], for which the IC50 in experiment [1] was 1.5 nM; in experiment [2], 197 nM.
In the case of `N#CC1(NC(=O)[C@@H]2C[C@@H](F)CC[C@H]2c2nc(-c3cccnc3)sc2-c2ccc(N3CCS(=O)(=O)CC3)cc2)CC1` [Example 46, (1R,2R,5S)-N-(1-cyanocyclopropyl)-2-(5-(4-(1,1-dioxidothiomorpho-lino)phenyl)-2-(pyridin-3-yl)thiazol-4-yl)-5-fluorocyclohexane-carboxamide], the figures for the IC50 in experiment [1] and in experiment [2] were 1.1 nM and 1980 nM, respectively.
For the compound `N#CC1(NC(=O)[C@@H]2CCCC[C@H]2c2nc(-c3ccc(F)cn3)sc2-c2ccc(N3CCS(=O)(=O)CC3)cc2)CC1` [Example 47, (1R,2R)-N-(1-cyanocyclopropyl)-2-(5-(4-(1,1-dioxidothiomorpho-lino)phenyl)-2-(5-fluoropyridin-2-yl)thiazol-4-yl)cyclohexane-carboxamide], the IC50 in experiment [1] is 1.3 nM; in experiment [2], 1520 nM.
For the compound `N#CC1(NC(=O)[C@@H]2CCCC[C@H]2c2nc(-c3cncc(Cl)c3)sc2-c2ccc(N3CCS(=O)(=O)CC3)cc2)CC1` [Example 48, (1R,2R)-2-(2-(5-chloropyridin-3-yl)-5-(4-(1,1-dioxidothiomorpho-lino)phenyl)thiazol-4-yl)-N-(1-cyanocyclopropyl) cyclohexanecarbox-amide], the IC50 in experiment [1] was 0.8 nM; in experiment [2], 650 nM.
`N#CC1(NC(=O)[C@@H]2CC(F)(F)CC[C@H]2c2nc(-c3cccnc3)sc2-c2ccc(N3CCS(=O)(=O)CC3)cc2)CC1` [Example 49, (1R,2R)-N-(1-cyanocyclopropyl)-2-(5-(4-(1,1-dioxidothiomorpho-lino)phenyl)-2-(pyridin-3-yl)thiazol-4-yl)-5,5-difluorocyclohexane-carboxamide]: the IC50 stood at 0.5 nM in experiment [1] and 49 nM in experiment [2].
For `Cn1cccc(-c2nc([C@@H]3CCCC[C@H]3C(=O)NC3(C#N)CC3)c(-c3ccc(N4CCS(=O)(=O)CC4)cc3)s2)c1=O` [Example 50, (1R,2R)-N-(1-cyanocyclopropyl)-2-(5-(4-(1,1-dioxidothiomorpho-lino)phenyl)-2-(1-methyl-2-oxo-1,2-dihydropyridin-3-yl)thiazol-4-yl)cyclohexane-carboxamide], in that order: 1.9 nM and 879 nM.
For the compound `COc1ccc(-c2nc([C@@H]3CCCC[C@H]3C(=O)NC3(C#N)CC3)c(-c3ccc(N4CCS(=O)(=O)CC4)cc3)s2)cc1` [Example 51, (1R,2R)-N-(1-cyanocyclopropyl)-2-(5-(4-(1,1-dioxidothiomorpho-lino)phenyl)-2-(4-methoxyphenyl)thi-azol-4-yl)cyclohexane-carboxamide], the values for the IC50 in experiment [1] and in experiment [2] were 1.8 nM and 1110 nM, respectively.
For the compound `Cn1cc(-c2nc([C@@H]3CCCC[C@H]3C(=O)NC3(C#N)CC3)c(-c3ccc(N4CCS(=O)(=O)CC4)cc3)s2)ccc1=O` [Example 53, (1R,2R)-N-(1-cyanocyclopropyl)-2-(5-(4-(1,1-dioxidothiomorpho-lino)phenyl)-2-(1-methyl-6-oxo-1,6-dihydropyridin-3-yl)thiazol-4-yl)cyclohexane-carboxamide], the IC50 was found to be 3.8 nM in experiment [1] and 2770 nM in experiment [2].
`COc1ccccc1-c1nc([C@@H]2CCCC[C@H]2C(=O)NC2(C#N)CC2)c(-c2ccc(N3CCS(=O)(=O)CC3)cc2)s1` [Example 54, (1R,2R)-N-(1-cyanocyclopropyl)-2-(5-(4-(1,1-dioxidothiomorpho-lino)phenyl)-2-(2-methoxyphenyl)thi-azol-4-yl)cyclohexane-carboxamide]: the IC50 in experiment [1] stood at 2.1 nM; in experiment [2], 1000 nM.
`N#CC1(NC(=O)[C@@H]2CCCC[C@H]2c2nc(-c3ccccc3F)sc2-c2ccc(N3CCS(=O)(=O)CC3)cc2)CC1` [Example 55, (1R,2R)-N-(1-cyanocyclopropyl)-2-(5-(4-(1,1-dioxidothiomorpho-lino)phenyl)-2-(2-fluorophenyl)thiazol-4-yl)cyclohexane-carboxamide]: the IC50 in experiment [1] was 2.5 nM; in experiment [2], 1120 nM.
